Experimental data published in patent EP2558096B1, “COMBINATION OF HYPOXIA-INDUCIBLE FACTOR-1 INHIBITORS AND TOLL-LIKE RECEPTOR-3 AGONISTS FOR TREATING SOLID TUMORS” (Università degli Studi di Roma "La Sapienza", priority 2010, dated 2011).
Where two headings read alike, the source gives them in different places. *1 amine or outer side, *2 acyl side, *3 side chain or, on linkers, in order; H or OH if unused. Where a SMILES comes first, the peptide text is derived from it. Bridges are numbered along the chain shown (N, C = ends). Roman numbers before positions name the chains, in order. [ ]: non-standard residue; d: D form. The star is where a group is joined. Actinocin(9to1) = Cc1c2oc3c(C)ccc(C(=O)[*:1])c3nc-2c(C(=O)[*:2])c(N)c1=O; NMeV = CN[C@H](C(=O)O)C(C)C; Cbz = O=C(OCc1ccccc1)*; Sar = CNCC(=O)O

System: HIF-1α
Assay: Western blot of HIF-1α protein in PC3 cells (whole cell and nuclear extracts)
Format: cell-based, human
Description: LNCaP and PC3 prostate cancer cells were purchased from ATCC and were grown in DME medium supplemented with 2 mM L-glutamine, 100 IU/ml penicillin-streptomycin and 10% FCS (Sigma-Aldrich, St Louis, MO). For all the experiments, prostate cancer cell lines were serum starved for 18 h and then stimulated with poly(I:C) (InvivoGen, San Diego) in FCS-free medium. Human Umbilical Vein Endothelial Cells (HUVEC) were maintained in EGM®-2 complete medium (Lonza, Basel, Switzerland). Actinomycin D, cycloheximide and CoCl2 were from Sigma. MG-132 was from Calbiochem-Merk (Damstadt, Germany).
Cell lysates were prepared in cell lysis buffer (Cell Signaling, Danvers, MA). Equal amounts of proteins (40 µg) were subjected to SDS-polyacrylamide gel electrophoresis and transferred onto a nitrocellulose membrane saturated with 5% non-fat dry milk in Tris-buffered saline with 0.1% Tween-20 (T-TBS). Membranes were incubated with primary antibody and subsequently with horseradish peroxidase-conjugated (HRP) secondary antibody for 1 h at room temperature. Membranes were washed with T-TBS and developed using the chemiluminescence system (ECL; Amersham Bioscience, Piscataway, NJ). Antibody anti-HIF-1α was from BD biosciences (San Diego, CA), cleaved caspase-3 (Asp175) from Cell Signalling (Danvers, MA) and anti-β actin from Sigma. Secondary antibodies were HRP-conjugated goat anti-mouse or anti-rabbit (Bio-Rad, Hercules, CA). To perform Western blot of nuclear extracts, cells were washed in ice-cold PBS, scraped and collected in buffer A (10 mM Tris, pH 7.8, 1.5 Mm MgC12, and 10 mM KCl), and kept on ice for 10 min. before Dounce homogenization. Nuclei were then pelleted at 1000 g for 7 min. at 4°C, re-suspended in 150 µl ice-cold lysis buffer and incubated for 30 min. on ice in the presence of proteases inhibitor cocktail (Sigma) then stored at -80°C. Protein concentration was determined by the micro bicinchoninic acid (BCA) method (Pierce, Rockford, IL).
One day after plating (1 x 10^5 cells/ml), cells were transiently transfected with 1 µg of a plasmid encoding 1.3 isoform of hif-1α [6] or relative control plasmid (pcDNA3) or with 1 µg of a plasmid containing an interfering sequence targeting hif-1α (int.HIF-1α) or the relative control (int. scramble) previously described. Cells were transfected for 5 h with lipofectamine LTX/plus (Invitrogen, Carlsbad, CA) according to the manufacturer's protocol. Challenge with poly(I:C) was performed 18 h later.
To obtain stably transfected PC3 cells with non-functional TLR3, cells were transfected with 1 µg TLR3-dominant negative plasmid (TLR3-DN) (pZERO-hTLR3, Invivogen) or with 1 µg plasmid containing only the resistance to puromycin (pPURO), using lipofectamine LTX/plus as described above. 48 h later, the cells were trypsinized, and seeded at different dilutions onto 100-mm plates in complete DMEM supplemented with 2 µg/ml puromycin (Invivogen). After incubation at 37°C for 2 to 3 weeks, individual colonies were isolated using sterile cloning rings, trypsinized and plated onto 12-well plates. The clones obtained were expanded and maintained in DMEM supplemented with 2 µg/ml puromycin.

Cc1c2oc3c(C)ccc(C(=O)N[C@@H]4C(=O)N[C@H](C(C)C)C(=O)N5CCC[C@H]5C(=O)N(C)CC(=O)N(C)[C@@H](C(C)C)C(=O)O[C@@H]4C)c3nc-2c(C(=O)N[C@@H]2C(=O)N[C@H](C(C)C)C(=O)N3CCC[C@H]3C(=O)N(C)CC(=O)N(C)[C@@H](C(C)C)C(=O)O[C@@H]2C)c(N)c1=O [Act D, actinomycin D] (I: T[dV]P[Sar][NMeV] / II: T[dV]P[Sar][NMeV]; ester I:1-I:C, II:1-II:C; linker I:N-II:N via Actinocin(9to1))
effect on HIF-1α protein accumulation in cells treated with CoCl2 (PC3 cells, 100 µM CoCl2 3 h, Fig. 2B upper): did not inhibit | effect on poly(I:C)-dependent HIF-1α protein induction (PC3 cells, poly(I:C) 5 µg/ml about 6 h, inhibitor for 15 min (CHX 100 µg/ml, Act D 2 µg/ml), Fig. 2B upper): completely abolished

CC(C)C[C@@H](C=O)NC(=O)[C@H](CC(C)C)NC(=O)[C@H](CC(C)C)NC(=O)OCc1ccccc1 [MG-132] (Cbz-Leu-Leu-Leu-aldehyde)
level of HIF-1α in the absence of poly(I:C) (PC3 cells, 5 µg/ml MG-132, 3 h, Fig. 2B lower): induced an increase | HIF-1α compared to CoCl2 alone (PC3 cells, CoCl2 combined with MG-132, Fig. 2B lower): greater increment

C[C@@H]1C[C@@H]([C@H](O)CC2CC(=O)NC(=O)C2)C(=O)[C@@H](C)C1 [CHX, cycloheximide]
effect on HIF-1α increase by CoCl2 combined with MG-132: not significantly inhibited | effect on HIF-1α increase by poly(I:C) in MG-132-treated cells: reverted the increase to the level of MG-132 alone | effect on HIF-1α protein accumulation in cells treated with CoCl2: did not inhibit | effect on poly(I:C)-dependent HIF-1α protein induction: completely abolished
